In the NIST ThermoML archive (doi:10.1021/je900266h):

Assays:
[1] = refractive index (Na D-line) (dimensionless); mn = molality of the nth substance listed, in mol/kg; settings: 101 kPa, Liquid, Standard Abbe refractometry
[2] = refractive index (Na D-line) (dimensionless); wn = mass fraction of the nth substance listed; settings: 101 kPa, Liquid, Standard Abbe refractometry, w2 = 0
[3] = refractive index (Na D-line) (dimensionless); settings: 101.33 kPa, Liquid, Standard Abbe refractometry

O [water] + O=S(=O)([O-])[O-].[Mg+2]
[1], m2 = 0
Settings | refractive index
288.15 K | 1.33339
298.15 K | 1.33248
308.15 K | 1.33128
318.15 K | 1.32979

O [water] + CCO
[2]
Settings | refractive index
288.15 K | 1.33339
298.15 K | 1.33248
308.15 K | 1.33128
318.15 K | 1.32979

O=S(=O)([O-])[O-].[Li+].[Li+] [lithium sulfate] + O
refractive index, [1]
Settings | 288.15 K | 298.15 K | 308.15 K | 318.15 K
m1 = 0.252 | 1.3383 | 1.33727 | 1.33612 | 1.33446
m1 = 0.4681 | 1.34212 | 1.34096 | 1.33987 | 1.33812
m1 = 0.7337 | 1.34651 | 1.34534 | 1.34419 | 1.3426
m1 = 0.9917 | 1.35062 | 1.34944 | 1.34829 | 1.3467
m1 = 1.245 | 1.3544 | 1.35316 | 1.35198 | 1.35056
m1 = 1.468 | 1.35752 | 1.35628 | 1.35518 | 1.35375
m1 = 1.756 | 1.3614 | 1.36011 | 1.35905 | 1.35765
m1 = 1.757 | 1.36143 | 1.36015 | 1.35909 | 1.35767
m1 = 1.939 | 1.36365 | 1.36242 | 1.36134 | 1.35998
m1 = 2.124 | 1.36601 | 1.36472 | 1.36368 | 1.36227
m1 = 2.306 | 1.36812 | 1.36691 | 1.36574 | 1.36453
m1 = 2.542 | 1.3709 | 1.36964 | 1.3685 | 1.3672
m1 = 2.798 | 1.3736 | 1.37243 | 1.37124 | 1.37003
m1 = 2.983 | 1.37551 | 1.37442 | 1.37316 | 1.37206
m1 = 3.158 | 1.37704 | – | – | –
m1 = 3.22 | 1.37774 | – | – | –

CCO [ethanol]
[3]
Settings | refractive index
288.15 K | 1.36344
298.15 K | 1.35922
308.15 K | 1.35477
318.15 K | 1.35068

O [water] + O=S(=O)([O-])[O-].[Cu+2]
[1], m2 = 0
Settings | refractive index
288.15 K | 1.33339
298.15 K | 1.33248
308.15 K | 1.33128
318.15 K | 1.32979

O=S(=O)([O-])[O-].[Cu+2] [copper sulfate] + O
refractive index, [1]
Settings | 288.15 K | 298.15 K | 308.15 K | 318.15 K
m1 = 0.1346 | 1.33752 | 1.33658 | 1.33528 | 1.33371
m1 = 0.3007 | 1.34217 | 1.34125 | 1.33987 | 1.33834
m1 = 0.4408 | 1.34604 | 1.3451 | 1.3436 | 1.34204
m1 = 0.5896 | 1.35008 | 1.34915 | 1.34753 | 1.34587
m1 = 0.7359 | 1.35392 | 1.35287 | 1.35129 | 1.34951
m1 = 0.859 | 1.35712 | 1.35606 | 1.35427 | 1.35249
m1 = 1.016 | 1.36104 | 1.36002 | 1.35816 | 1.35632
m1 = 1.179 | 1.3651 | 1.36398 | 1.36209 | 1.36027
m1 = 1.301 | 1.36803 | 1.367 | 1.365 | 1.36305
m1 = 1.456 | – | 1.3706 | 1.36872 | 1.36664
m1 = 1.579 | – | – | 1.37162 | 1.36952
m1 = 1.736 | – | – | – | 1.37296
m1 = 1.891 | – | – | – | 1.37632
m1 = 2.058 | – | – | – | 1.38013

O [water]
[3]
Settings | refractive index
288.15 K | 1.33339
298.15 K | 1.33248
308.15 K | 1.33128
318.15 K | 1.32979

O=S(=O)([O-])[O-].[Mg+2] [magnesium sulfate] + O
refractive index, [1]
Settings | 288.15 K | 298.15 K | 308.15 K | 318.15 K
m1 = 0.2096 | 1.33858 | 1.33762 | 1.33629 | 1.33491
m1 = 0.3448 | 1.34163 | 1.34072 | 1.3393 | 1.33803
m1 = 0.5911 | 1.3471 | 1.34594 | 1.34463 | 1.34335
m1 = 0.7832 | 1.35115 | 1.35009 | 1.34872 | 1.34735
m1 = 0.9997 | 1.35558 | 1.35438 | 1.35295 | 1.3516
m1 = 1.19 | 1.35934 | 1.3581 | 1.35667 | 1.35532
m1 = 1.379 | 1.36292 | 1.36174 | 1.36037 | 1.35894
m1 = 1.621 | 1.3674 | 1.36613 | 1.36468 | 1.36342
m1 = 1.867 | 1.37176 | 1.37039 | 1.36899 | 1.3677
m1 = 2.12 | 1.376 | 1.37469 | 1.3732 | 1.37185
m1 = 2.36 | 1.37993 | 1.37853 | 1.37709 | 1.37586
m1 = 2.592 | 1.38344 | 1.38211 | 1.38069 | 1.37944
m1 = 2.859 | – | 1.38613 | 1.38461 | 1.38352
m1 = 3.087 | – | 1.38927 | 1.3878 | 1.38662
m1 = 3.347 | – | – | 1.39151 | 1.39026
m1 = 3.579 | – | – | 1.3945 | 1.39328
m1 = 3.807 | – | – | – | 1.39614
m1 = 3.998 | – | – | – | 1.39817

O [water] + O=S(=O)([O-])[O-].[Li+].[Li+]
[1], m2 = 0
Settings | refractive index
288.15 K | 1.33339
298.15 K | 1.33248
308.15 K | 1.33128
318.15 K | 1.32979
